{
  "source": "patent US20020015937A1",
  "about": "“Methods for inactivating viruses” (priority 2000, published 2002)",
  "molecules": {"B1": {"name": "RNase: ribonuclease, enzyme that hydrolyzes RNA; RNase A used at 10 μg/ml (protein, UniProt P61823 27-150, looked up)", "Ribonuclease pancreatic": "KETAAAKFERQHMDSSTSAASSSNYCNQMMKSRNLTKDRCKPVNTFVHESLADVQAVCSQKNVACKNGQTNCYQSYSTMSITDCRETGSSKYPNCAYKTTQANKHIIVACEGNPYVPVHFDASV"}},
  "format_in_all_cases": "cell-based",
  "key": {"SV 40": {"tested_on": "SV 40", "assay": "Inactivation of SV 40 in human blood plasma by pressure cycling and DNase (plaque assay on primate cells)"}, "bacteriophage MS2 [1]": {"tested_on": "bacteriophage MS2", "assay": "Inactivation of bacteriophage MS2 in human blood plasma by pressure cycling and 1-(2-aminoethyl)aziridine (plaque assay on E. coli)"}, "[2]": {"tested_on": "Feline rhinotrachetis virus", "assay": "Inactivation of feline rhinotrachetis virus in human blood plasma by pressure cycling and S-59 with UV (plaque assay on feline cells)"}, "[3]": {"tested_on": "Feline rhinotrachetis virus", "assay": "Inactivation of feline rhinotrachetis virus in human blood plasma by pressure and HMT with UV (plaque assay on feline cells Fc3Tg)", "description": "The infectivity of the virus suspension is determined by duplicate plaque assays on cultured feline cells, Fc3Tg (ATCC CCL 176) with a methylcellulose overlay. The sample is split into four aliquots and are treated as follows: 1) aliquot 1—no treatment; […] 4) aliquot 4—nothing added and pressurized to 30,000 psi for 10 minutes. All samples are held at a temperature of 25° C. throughout the experiment. After treatment, the plasma is serially diluted, mixed with cultured feline cells and plated on agar."}, "bacteriophage MS2 [4]": {"tested_on": "bacteriophage MS2", "assay": "Inactivation of bacteriophage MS2 in human blood plasma by pressure and RNase (plaque assay on E. coli)"}},
  "data": [
    {"molecule": "DNase", "values": [
      {"measurement": "reduction in viral titer, combination with pressure cycling versus sum of the reductions of the single treatments", "setting": "SV 40; 20 μg/ml DNase I, 90,000 psi for 10 minutes, 25 cycles, 37° C., human blood plasma, 10^8 pfu per ml SV 40", "result": "significantly greater reduction in viral titer"},
      {"measurement": "viral inactivation under pressure cycling at lower concentrations", "setting": "SV 40; similar experiments with lower concentrations of DNase, with pressure cycling", "result": "equivalent viral inactivation with lower concentrations of DNase or with shorter incubation time"}
    ]},
    {"molecule": "NCCN1CC1", "note": "[1-(2-aminoethyl)aziridine]", "values": [
      {"measurement": "reduction in viral titer, combination with pressure cycling versus sum of the reductions of the single treatments", "setting": "bacteriophage MS2 [1]; 0.007 M 1-(2-aminoethyl)aziridine, 80,000 psi for 10 minutes, 20 cycles, 25° C., human blood plasma, 10^8 pfu per ml MS2", "result": "significantly greater reduction in viral titer"},
      {"measurement": "viral inactivation under pressure cycling at lower concentrations", "setting": "bacteriophage MS2 [1]; similar experiments with lower concentrations of 1-(2-aminoethyl)aziridine, with pressure cycling", "result": "equivalent viral inactivation with lower concentrations of 1-(2-aminoethyl)aziridine or with shorter incubation time"}
    ]},
    {"molecule": "Cc1oc2c(C)c3oc(=O)cc(C)c3cc2c1COCCN", "note": "[S-59, 4′-(4-amino-2-oxa)butyl-4,5′,8-trimethylpsoralen]", "values": [
      {"measurement": "reduction in viral titer, combination with pressure cycling versus sum of the reductions of the single treatments", "setting": "[2]; 150 μM S-59, longwave UV light 10 minutes, 90,000 psi for 5 minutes, 24 cycles, then UV ten minutes, 25° C., human blood plasma, 2×10^7 pfu per ml", "result": "significantly greater reduction in viral titer"},
      {"measurement": "viral inactivation under pressure cycling at lower concentrations", "setting": "[2]; similar experiments with lower concentrations of S-59, with pressure cycling", "result": "equivalent viral inactivation with lower concentrations"}
    ]},
    {"molecule": "Cc1oc2c(C)c3oc(=O)cc(C)c3cc2c1CO", "note": "[HMT, 4′-hydroxymethyl-4,5′,8-trimethylpsoralen]", "values": [
      {"measurement": "reduction in viral titer, combination with pressure versus sum of the reductions of the single treatments", "setting": "[3]; 20 μg/ml HMT, 30,000 psi for 10 minutes, then longwave UV light (320 to 380 nm) 10 minutes, 25° C., human blood plasma, 2×10^7 pfu per ml", "result": "significantly greater reduction in viral titer"},
      {"measurement": "viral inactivation under pressure at lower concentrations", "setting": "[3]; similar experiments with lower concentrations of HMT, with pressure", "result": "equivalent viral inactivation with lower concentrations"}
    ]},
    {"molecule": "B1", "values": [
      {"measurement": "reduction in viral titer, combination with pressure versus sum of the reductions of the single treatments", "setting": "bacteriophage MS2 [4]; 10 μg/ml RNase A, 25,000 psi for 20 minutes, 37° C., human blood plasma, 10^8 pfu per ml MS2", "result": "significantly greater reduction in viral titer"},
      {"measurement": "viral inactivation under pressure at lower concentrations", "setting": "bacteriophage MS2 [4]; similar experiments with lower concentrations of RNase, with pressure", "result": "equivalent viral inactivation with lower concentrations of RNase or with shorter incubation time"}
    ]}
  ]
}
